The record followed here is ChEMBL document CHEMBL1201862, “PubChem BioAssay data set” (2004).

Among the test systems are MCF7; ACHN; SF-539; Malme-3M; SNB-75; A549; HCC 2998; T47D; MOLT-4; KM12; NCI-H23; MDA-N; NCI-H226; HOP-92; UACC-257; SN12C; HCT-116; TK-10; SK-MEL-5; EKVX.
What all share (test): NCI-60 cell line screen, 48 h

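Dose response: 5 concentrations. Exposure: 48 h. Format: 96-well plates. Endpoint: linear interpolation; highest concentration if not reached. Here, GI50 denotes the concentration required for 50% inhibition of growth.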 Activity calls are given as the source filed them. Rule as the data show it: active = GI50 up to about 1.1 µM and inactive = higher.

As to `C[N+](C)(C)CC(=O)N/N=C(/CC1OC(=O)c2ccccc21)c1ccccc1O` (stereo not given), the GI50 with MCF7 was 54.8 µM (inactive); in the experiment with ACHN it was 20.3 µM (inactive); in the experiment on SF-539 it was 20.3 µM (inactive); with Malme-3M, 59.8 µM (inactive); with SNB-75, 39.1 µM (inactive); in the experiment with A549, 76.6 µM (inactive). The GI50 in the experiment with HCC 2998 is 22.4 µM (inactive); with T47D, 25.6 µM (inactive); in the experiment on MOLT-4, 16.2 µM (inactive); with KM12, 26.7 µM (inactive); in the experiment on NCI-H23 it was 26.5 µM (inactive); in the experiment with MDA-N, 54.1 µM (inactive). Also, the GI50 in the experiment with NCI-H226 was 20 µM (inactive); with HOP-92, 29.7 µM (inactive); in the experiment with UACC-257, 24 µM (inactive); with SN12C, 49 µM (inactive); with HCT-116 it was 28.4 µM (inactive); with TK-10, 31.9 µM (inactive). The GI50 with SK-MEL-5 was 46.6 µM (inactive); with EKVX, 62.4 µM (inactive).

In the case of `O=C1CCC2(CC1CC(Sc1ccccc1)Sc1ccccc1)OCCO2` (stereo not given), the GI50 in the experiment with MCF7 is 32 µM (inactive); in the experiment with ACHN, 38.6 µM (inactive); in the experiment with SF-539, 43.1 µM (inactive); with Malme-3M it was 29.6 µM (inactive); with SNB-75 it was 80.4 µM (inactive); in the experiment with A549, 38.2 µM (inactive). The GI50 in the experiment on HCC 2998 was 44.1 µM (inactive); in the experiment with T47D, 22.5 µM (inactive); in the experiment on MOLT-4, 20.7 µM (inactive); in the experiment on KM12, 27.4 µM (inactive); in the experiment on NCI-H23, 42.7 µM (inactive); in the experiment with MDA-N it was 42.4 µM (inactive). Besides, the GI50 in the experiment on NCI-H226 is 58.7 µM (inactive); in the experiment on HOP-92 it was 28 µM (inactive); in the experiment on UACC-257, 36.8 µM (inactive); in the experiment with TK-10, 62.7 µM (inactive); in the experiment on SK-MEL-5 it was 17.5 µM (inactive); in the experiment on EKVX it was 61.8 µM (inactive).

With `O=c1cc(N2CCCC2)[nH]c(=O)n1-c1cccc(Cl)c1`, the GI50 in the experiment with MCF7, in the experiment with ACHN, in the experiment with SF-539, in the experiment on Malme-3M, in the experiment with SNB-75 and in the experiment on HCC 2998 was > 100 µM (inactive) in each case. Besides, the GI50 in the experiment on T47D, in the experiment with MOLT-4, in the experiment with KM12, with NCI-H23, with MDA-N and in the experiment on NCI-H226 was > 100 µM (inactive) in each case. The GI50 in the experiment with HOP-92, in the experiment on UACC-257, with SN12C, in the experiment on HCT-116, with TK-10 and with EKVX was > 100 µM (inactive) in each case.

Consider `CC1(c2ccc(Cl)s2)CC(c2ccc(Cl)s2)=C(C#N)C(=C(C#N)C#N)N1` (stereo not given), for which the GI50 was 17.6 µM (inactive) in the experiment with MCF7; 17.5 µM (inactive) in the experiment with ACHN; 26.3 µM (inactive) in the experiment on SF-539; 22.8 µM (inactive) in the experiment with Malme-3M; 22.2 µM (inactive) in the experiment with SNB-75; 22.4 µM (inactive) with A549. For the same compound, the GI50 in the experiment with HCC 2998 was 18.9 µM (inactive); with T47D, 18.8 µM (inactive); with MOLT-4, 28.1 µM (inactive); in the experiment on KM12 it was 18 µM (inactive); in the experiment with NCI-H23 it was 21.2 µM (inactive); in the experiment on MDA-N, 22.4 µM (inactive). Moreover, the GI50 with NCI-H226 was 26.9 µM (inactive); in the experiment on HOP-92, 15.4 µM (inactive); in the experiment on UACC-257, 21.9 µM (inactive); in the experiment with SN12C, 21 µM (inactive); in the experiment on HCT-116 it was 17.3 µM (inactive); in the experiment with TK-10, 22.4 µM (inactive). Besides, the GI50 is 15.2 µM (inactive) in the experiment on SK-MEL-5 and 18.2 µM (inactive) with EKVX.

Consider `COc1cc(N2C(=O)C(=O)C3(CCCCC3)C2=O)cc(OC)c1OC`, for which the GI50 with MCF7, with ACHN, with SF-539, in the experiment with Malme-3M, in the experiment with SNB-75 and in the experiment on A549 was > 100 µM (inactive) each time. The GI50 in the experiment on HCC 2998, in the experiment with T47D, in the experiment on MOLT-4, in the experiment on KM12, in the experiment with NCI-H23 and in the experiment with MDA-N was > 100 µM (inactive) throughout. Moreover, the GI50 in the experiment with NCI-H226, with UACC-257, with SN12C, in the experiment on HCT-116, with TK-10 and in the experiment with SK-MEL-5 was > 100 µM (inactive) throughout. Further, the GI50 in the experiment on EKVX is > 100 µM (inactive).

In the case of `CC1(C)N=C(/C(Cl)=[N+](/[O-])C(=O)c2ccc(F)cc2)C(C)(C)N1O`, the GI50 in the experiment with MCF7 is 19.1 µM (inactive); in the experiment with ACHN, 19.1 µM (inactive); with SF-539 it was 23.7 µM (inactive); in the experiment on Malme-3M, 16.3 µM (inactive); with SNB-75, 16.6 µM (inactive); in the experiment with A549, 45.8 µM (inactive). The GI50 in the experiment with HCC 2998 is 18.8 µM (inactive); in the experiment with T47D, 25.7 µM (inactive); in the experiment on KM12, 26.2 µM (inactive); in the experiment on NCI-H23, 17.1 µM (inactive); in the experiment on MDA-N, 16.4 µM (inactive); in the experiment on NCI-H226 it was 22.7 µM (inactive). Also, the GI50 in the experiment on HOP-92 is 24.5 µM (inactive); with UACC-257, 17.1 µM (inactive); with SN12C it was 15.8 µM (inactive); with HCT-116 it was 16.4 µM (inactive); in the experiment with TK-10 it was 16.1 µM (inactive); in the experiment on SK-MEL-5, 16.4 µM (inactive). Also, the GI50 in the experiment on EKVX is 20.1 µM (inactive).

For `CC(=O)N1C(Nc2ccccn2)CCN1c1ccccc1` (stereo not given), the GI50 is > 10 µM (inactive) with MCF7; 7.36 µM (inactive) in the experiment with ACHN; > 10 µM (inactive) in the experiment with SF-539; > 10 µM (inactive) with Malme-3M; > 10 µM (inactive) in the experiment on SNB-75; > 10 µM (inactive) in the experiment on A549. Also, the GI50 in the experiment on HCC 2998, in the experiment on T47D, in the experiment with MOLT-4, in the experiment on NCI-H23, with MDA-N and with NCI-H226 was > 10 µM (inactive) each time. For the same compound, the GI50 in the experiment with HOP-92, with UACC-257, with SN12C, in the experiment on HCT-116, with TK-10 and in the experiment with SK-MEL-5 was > 10 µM (inactive) each time. In the experiment with EKVX, the GI50 is > 10 µM (inactive).

As for `O=C(O)c1ccccc1/C=C1/Nc2ccccc2C1=O`, the GI50 in the experiment on MCF7 was 48.8 µM (inactive); in the experiment on ACHN, 57.3 µM (inactive); in the experiment with SF-539, 92.9 µM (inactive); with Malme-3M, > 100 µM (inactive); in the experiment with SNB-75 it was > 100 µM (inactive); with A549, > 100 µM (inactive). Besides, the GI50 in the experiment with HCC 2998 was > 100 µM (inactive); in the experiment on T47D it was 51.8 µM (inactive); in the experiment on MOLT-4 it was 91.4 µM (inactive); in the experiment on KM12, 37.9 µM (inactive); in the experiment with NCI-H23, > 100 µM (inactive); with MDA-N, > 100 µM (inactive). Also, the GI50 was > 100 µM (inactive) with NCI-H226; > 100 µM (inactive) in the experiment on HOP-92; > 100 µM (inactive) in the experiment with UACC-257; > 100 µM (inactive) with SN12C; 81.5 µM (inactive) in the experiment on HCT-116; > 100 µM (inactive) with TK-10. The GI50 in the experiment with EKVX is 60 µM (inactive).

As to `CCN(CCCl)c1cccc(NC(=O)c2ccc(C(=O)Nc3cccc(CN(C)C)c3)cc2)c1`, the GI50 in the experiment with MCF7 was 0.0215 µM (active); in the experiment on ACHN it was 0.0354 µM (active); with SF-539, 0.244 µM (active); in the experiment on Malme-3M, 0.049 µM (active); in the experiment with SNB-75, 0.207 µM (active); in the experiment on A549, 0.211 µM (active). The GI50 with HCC 2998 was 0.123 µM (active); with T47D it was 0.0412 µM (active); in the experiment on MOLT-4, 0.0246 µM (active); in the experiment with KM12, 0.129 µM (active); in the experiment on NCI-H23, 0.0935 µM (active); in the experiment on MDA-N it was 0.05 µM (active). The GI50 in the experiment with NCI-H226 was 0.219 µM (active); in the experiment with HOP-92, 0.144 µM (active); in the experiment on UACC-257, 0.113 µM (active); in the experiment with SN12C, 0.335 µM (active); in the experiment on HCT-116, 0.0611 µM (active); with TK-10 it was 0.372 µM (active). Further, the GI50 with SK-MEL-5 was 0.0118 µM (active).

`O=C(O)CCCc1ccc2c(c1)C(C(=O)O)CC2` (stereo not given): the GI50 in the experiment on MCF7, in the experiment on ACHN, with SF-539, in the experiment with Malme-3M, in the experiment with SNB-75 and in the experiment on A549 was > 100 µM (inactive) in each case. Further, the GI50 with HCC 2998, with T47D, in the experiment with MOLT-4, in the experiment on KM12, in the experiment on NCI-H23 and with MDA-N was > 100 µM (inactive) each time. Also, the GI50 with NCI-H226, in the experiment with UACC-257, with SN12C, in the experiment with HCT-116, in the experiment on TK-10 and with SK-MEL-5 was > 100 µM (inactive) each time. Further, the GI50 in the experiment with EKVX was > 100 µM (inactive).
